US9655904B2, “Substituted benzoazepines as toll-like receptor modulators” (VentiRx Pharmaceuticals, Inc., priority 2009, dated 2017)

Legend:
Type in all cases: cell-based
TLR8 [1] = molecular target: T1, TLR8 (Homo sapiens, UniProt Q9NR97); assay: MC50 values for TLR8 activity (test not specified; procedures of Gorden et al. and Zhu et al.)
T1 sequence (Q9NR97 27-1041): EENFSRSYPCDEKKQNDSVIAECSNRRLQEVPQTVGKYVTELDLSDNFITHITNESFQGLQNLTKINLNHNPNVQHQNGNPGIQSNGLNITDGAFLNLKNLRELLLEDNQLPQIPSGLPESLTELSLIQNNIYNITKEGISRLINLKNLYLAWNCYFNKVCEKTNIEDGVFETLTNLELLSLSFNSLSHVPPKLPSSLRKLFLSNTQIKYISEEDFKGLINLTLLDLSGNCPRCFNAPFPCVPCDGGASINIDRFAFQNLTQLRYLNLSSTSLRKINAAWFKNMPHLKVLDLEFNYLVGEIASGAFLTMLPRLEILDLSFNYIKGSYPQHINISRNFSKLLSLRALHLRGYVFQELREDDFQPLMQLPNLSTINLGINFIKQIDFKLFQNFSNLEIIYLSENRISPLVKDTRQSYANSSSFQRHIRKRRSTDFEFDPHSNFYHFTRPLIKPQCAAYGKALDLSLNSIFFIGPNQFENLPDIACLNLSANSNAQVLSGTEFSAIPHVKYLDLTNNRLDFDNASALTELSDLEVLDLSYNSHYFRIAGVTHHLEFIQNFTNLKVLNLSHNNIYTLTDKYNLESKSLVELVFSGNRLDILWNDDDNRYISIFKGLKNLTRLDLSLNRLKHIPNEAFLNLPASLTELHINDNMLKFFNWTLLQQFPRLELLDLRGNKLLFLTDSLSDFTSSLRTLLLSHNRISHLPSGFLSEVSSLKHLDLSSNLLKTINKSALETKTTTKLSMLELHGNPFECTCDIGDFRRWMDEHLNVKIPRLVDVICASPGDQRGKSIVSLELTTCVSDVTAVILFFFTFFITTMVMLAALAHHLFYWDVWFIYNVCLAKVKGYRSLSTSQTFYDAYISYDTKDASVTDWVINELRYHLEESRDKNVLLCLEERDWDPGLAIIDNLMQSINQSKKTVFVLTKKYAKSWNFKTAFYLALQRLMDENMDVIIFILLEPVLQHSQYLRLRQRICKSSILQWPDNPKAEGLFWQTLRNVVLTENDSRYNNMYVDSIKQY
Excerpt: (§1) Activity of the compounds can be assessed according to procedures described in, e.g., Gorden et al., Journal of Immunology 177, pp. 8164-8170 (2006) and Zhu et al., Molecular Immunology, vol. 45 (11), pp. 3238-3242 (2008).
MC50 values for TLR8 activity are, for example, as shown below: […]

TLR7 [2] = molecular target: T2, TLR7 (Homo sapiens, UniProt Q9NYK1); assay: PBMC assay for TLR7 (IFNα in supernatants by ELISA); set-up: Peripheral blood mononuclear cells (PBMCs) from human blood were isolated; endogenous in cells; host or cells: human PBMCs; details: human PBMCs incubated with compound overnight, MC50 = concentration at which 50% of maximum induction is seen
T2 sequence (Q9NYK1 27-1049): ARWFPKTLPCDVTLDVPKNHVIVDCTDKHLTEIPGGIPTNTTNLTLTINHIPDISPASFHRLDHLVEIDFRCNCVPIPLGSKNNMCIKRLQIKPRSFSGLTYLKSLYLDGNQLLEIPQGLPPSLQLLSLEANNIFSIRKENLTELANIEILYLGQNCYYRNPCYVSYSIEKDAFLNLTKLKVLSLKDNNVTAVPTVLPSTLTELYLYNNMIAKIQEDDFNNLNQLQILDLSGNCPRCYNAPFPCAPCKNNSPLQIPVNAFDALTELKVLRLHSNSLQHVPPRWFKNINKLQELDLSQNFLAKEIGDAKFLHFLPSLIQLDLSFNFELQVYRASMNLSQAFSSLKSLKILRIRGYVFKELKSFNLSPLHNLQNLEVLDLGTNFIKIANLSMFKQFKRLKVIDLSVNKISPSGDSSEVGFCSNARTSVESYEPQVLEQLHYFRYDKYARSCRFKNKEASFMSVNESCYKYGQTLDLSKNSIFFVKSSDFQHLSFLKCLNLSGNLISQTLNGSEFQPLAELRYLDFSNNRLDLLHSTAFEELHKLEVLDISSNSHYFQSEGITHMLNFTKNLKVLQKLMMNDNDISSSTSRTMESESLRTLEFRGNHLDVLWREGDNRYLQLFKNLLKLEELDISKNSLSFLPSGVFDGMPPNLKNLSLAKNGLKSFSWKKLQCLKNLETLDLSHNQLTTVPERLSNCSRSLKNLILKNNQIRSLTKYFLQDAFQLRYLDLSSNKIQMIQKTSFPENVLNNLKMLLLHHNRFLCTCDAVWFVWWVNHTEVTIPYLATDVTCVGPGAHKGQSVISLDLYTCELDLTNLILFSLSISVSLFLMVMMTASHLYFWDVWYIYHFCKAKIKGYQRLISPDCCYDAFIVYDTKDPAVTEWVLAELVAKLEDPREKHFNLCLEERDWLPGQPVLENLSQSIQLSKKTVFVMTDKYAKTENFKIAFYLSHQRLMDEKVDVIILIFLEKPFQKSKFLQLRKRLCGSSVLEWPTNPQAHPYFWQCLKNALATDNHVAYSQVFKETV
Protocol: (§2) Peripheral blood mononuclear cells (PBMCs) from human blood were isolated using BD Vacutainer Cell Preparation Tubes with sodium citrate. Cells were incubated with compound overnight. TLR8 activity was assayed by measuring the amount of TNFα in supernatants by ELISA. TLR7 activity was assayed by measuring the amount of IFNα in supernatants by ELISA (R&D Systems). […] The results of this assay are shown below in Tables 2 and 3.
(§3) MC50 numbers are represented as factors of ten, for example, + indicates an MC50 value of X 10^4, or a value in the tens of thousands of nanomolar (nM range); ++ indicates an MC50 value of X 10^3, or a value in the thousands; +++ indicates an MC50 value of X 10^2, or a value in the hundreds; and ++++ indicates an MC50 value of X 10^1 or 10^0, or a value in the tens or ones.

TLR8 [3] = molecular target: T1, TLR8; assay: PBMC assay for TLR8 (TNFα in supernatants by ELISA); set-up: Peripheral blood mononuclear cells (PBMCs) from human blood were isolated; endogenous in cells; host or cells: human PBMCs; details: human PBMCs incubated with compound overnight, MC50 = concentration at which 50% of maximum induction is seen
Protocol: as §2, §3

TLR7 [4] = molecular target: T2, TLR7; assay: MC50 values for TLR7 activity (test not specified; procedures of Gorden et al. and Zhu et al.)
Excerpt: as §1
MC50 values for TLR7 activity are, for example, as shown below: […]

Compound | EC50 (TLR8 [1]) | EC50 (TLR7 [2]) | EC50 (TLR8 [3]) | EC50 (TLR7 [4])
CCCN(CCC)C(=O)C1=Cc2ccc(-c3ccc(C(O)CO)cc3)cc2N=C(N)C1 (stereo not shown) [Compound 224, (1E,4E)-2-amino-8-(4-(1,2-dihydroxyethyl)phenyl)-N,N-dipropyl-3H-benzo[b]azepine-4-carboxamide] | 0.363 µM | 10 to 100 µM | 0.1 to 1 µM | 
CCCN(CCC)C(=O)C1=Cc2ccc(-c3ccc(CCC(=O)OCC)cc3)cc2N=C(N)C1 [Compound 193, Ethyl 3-(4-((1E,4E)-2-amino-4-(dipropylcarbamoyl)-3H-benzo[b]azepin-8-yl)phenyl)propanoate] |  | 1 to 10 µM | 1 to 10 µM | 
CCCN(CCC)C(=O)C1=Cc2ccc(-c3ccc(CC(=O)OCC)cc3)cc2N=C(N)C1 [Compound 192, Ethyl 2-(4-((1E,4E)-2-amino-4-(dipropylcarbamoyl)-3H-benzo[b]azepin-8-yl)phenyl)acetate] |  | 10 to 100 µM | 0.1 to 1 µM | 
CCCN(CCC)C(=O)C1=Cc2ccc(-c3cncc(CO)c3)cc2N=C(N)C1 [Compound 183, (1E,4E)-2-amino-8-(5-(hydroxymethyl)pyridin-3-yl)-N,N-dipropyl-3H-benzo[b]azepine-4-carboxamide] | 0.008 µM | 1 to 10 µM | 0.001 to 0.1 µM | 
CCOC(=O)C1=Cc2ccc(-c3cncc(CO)c3)cc2N=C(N)C1 [Compound 199, (1E,4E)-ethyl 2-amino-8-(5-(hydroxymethyl)pyridin-3-yl)-3H-benzo[b]azepine-4-carboxylate] |  | 1 to 10 µM | 0.001 to 0.1 µM | 
CCCN(CCC)C(=O)C1=Cc2ccc(-c3ccc(C4CCOC4=O)cc3)cc2N=C(N)C1 (stereo not shown) [Compound 223, (1E,4E)-2-Amino-8-(4-(2-oxotetrahydrofuran-3-yl)phenyl)-N,N-dipropyl-3H-benzo[b]azepine-4-carboxamide] | 0.195 µM | 1 to 10 µM | 0.1 to 1 µM | 
CCCN(CCCO)C(=O)C1=Cc2ccc(-c3ccc(CCC(=O)OCC(C)C)cc3)cc2N=C(N)C1 [Compound 219, Isobutyl 3-(4-((1E,4E)-2-amino-4-((3-hydroxypropyl)(propyl)carbamoyl)-3H-benzo[b]azepin-8-yl)phenyl)propanoate] |  | 1 to 10 µM | 1 to 10 µM | 
CCCN(CCCO)C(=O)C1=Cc2ccc(-c3ccc(CC(=O)OC)cc3)cc2N=C(N)C1 [Compound 213, Methyl 2-(4-((1E,4E)-2-amino-4-((3-hydroxypropyl)(propyl)carbamoyl)-3H-benzo[b]azepin-8-yl)phenyl)acetate] |  | 1 to 10 µM | 0.1 to 1 µM | 
CCCN(CCC)C(=O)C1=Cc2ccc(-c3ccc(OCC(=O)OCC)cc3)cc2N=C(N)C1 [Compound 197, Ethyl 2-(4-((1E,4E)-2-amino-4-(dipropylcarbamoyl)-3H-benzo[b]azepin-8-yl)phenoxy)acetate] |  | 1 to 10 µM | 0.1 to 1 µM | 
CCCN(CCCO)C(=O)C1=Cc2ccc(-c3ccc4c(c3)C(=O)OC4)cc2N=C(N)C1 [Compound 222, (1E,4E)-2-Amino-N-(3-hydroxypropyl)-8-((3-oxo-1,3-dihydroisobenzofuran-5-yl)-N-propyl-3H-benzo[b]azepine-4-carboxamide] | 0.033 µM | 0.1 to 1 µM | 0.001 to 0.1 µM | 0.358 µM
CCCN(CCCO)C(=O)C1=Cc2ccc(-c3ccc(CC(=O)OCC)cc3)cc2N=C(N)C1 [Compound 214, Ethyl 2-(4-((1E,4E)-2-amino-4-((3-hydroxypropyl)(propyl)carbamoyl)-3H-benzo[b]azepin-8-yl)phenyl)acetate] | 0.054 µM | 1 to 10 µM | 0.001 to 0.1 µM | 
